Reference: PubChem BioAssay (NCI)
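Five concentrations, 48 hours, 96-well plates. TGI denotes the concentration required for complete inhibition of growth.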

Experiments:
Experiment in all cases: NCI tumour cell line growth inhibition, 48 h
[1] = system: HS 578T breast
[2] = system: SK-OV-3 ovarian
[3] = system: MDA-MB-435
[4] = system: NCI-H522 lung
[5] = system: PC-3 prostate
[6] = system: M14 melanoma
[7] = system: UO-31 renal
[8] = system: DU-145 prostate
[9] = system: NCI-H226 lung
[10] = system: OVCAR-8 ovarian
[11] = system: KM12 colon
[12] = system: SN12C renal
[13] = system: BT-549 breast
[14] = system: UACC-62 melanoma
[15] = system: NCI-H23 lung
[16] = system: RPMI-8226 leukemia
[17] = system: SK-MEL-5 melanoma
[18] = system: OVCAR-3 ovarian

SMILES | TGI [1] | TGI [2] | TGI [3] | TGI [4] | TGI [5] | TGI [6] | TGI [7] | TGI [8] | TGI [9] | TGI [10] | TGI [11] | TGI [12] | TGI [13] | TGI [14] | TGI [15] | TGI [16] | TGI [17] | TGI [18]
COc1ccc(Cc2nnc(Nc3ccc(Br)cc3)[nH]c2=O)cc1OC | > 100 µM | > 100 µM | 20.7 µM | > 100 µM | > 100 µM | > 100 µM | > 100 µM | > 100 µM | > 100 µM | > 100 µM | > 100 µM | > 100 µM | > 31.6 µM | > 100 µM | > 100 µM | > 100 µM | > 100 µM | > 100 µM
CC1(C)Cc2nc3c(cc2C(=O)C1C=N/C(C#N)=C(\N)C#N)C(=O)C(C=N/C(C#N)=C(\N)C#N)C(C)(C)C3 (stereo not given) | 3.32 µM | > 34.9 µM | 3.48 µM | 2.3 µM | 5.35 µM | 3.05 µM | 3.51 µM | 8.44 µM | 12.7 µM | 8.71 µM | 3.38 µM | 5.23 µM | 5.51 µM | 3.56 µM | 7.36 µM | > 27.7 µM | 4.66 µM | 11 µM
CC(=O)Nc1c(C)cc2c(nc3n2CCC3OC(C)=O)c1[N+](=O)[O-] (stereo not given) | > 100 µM | > 100 µM | > 100 µM | > 100 µM | > 100 µM | > 100 µM | > 100 µM | > 100 µM | > 100 µM | > 100 µM | > 100 µM | > 100 µM | > 100 µM | > 100 µM | > 100 µM | > 100 µM | > 100 µM | > 100 µM
N#CC(=N)c1ncn(-c2ccc(N)cc2)c1N | > 100 µM | > 100 µM | > 100 µM | > 100 µM | > 100 µM | > 100 µM | > 100 µM | > 100 µM | > 100 µM | > 100 µM | > 100 µM | > 100 µM | > 100 µM | > 100 µM | > 100 µM | > 100 µM | > 100 µM | > 100 µM
C/C=C(\C)C(O)C(C)C(O)C/C=C(C)/C=C(\C)C/C(C)=C/C/C=C(\C)C(O)C(C)c1ccc(CCC)c(=O)o1 (stereo not given) | 37.9 µM | 94.5 µM | 22.7 µM | 17.2 µM | 21.3 µM | 28.4 µM | 21 µM | 91.7 µM | 55.6 µM | 48.7 µM | 23.8 µM | 46.2 µM | 25 µM | 26.1 µM | 26.1 µM | > 100 µM | 14.3 µM | 27.8 µM
CC(C)=CCC/C(C)=C/CC/C(C)=C/CC/C(C)=C/CC/C(C)=C/CC/C(C)=C/CC/C(C)=C/CC/C(C)=C/CC/C(C)=C/CO | > 100 µM | > 100 µM | > 100 µM | > 100 µM | > 100 µM | > 100 µM | > 100 µM | > 100 µM | > 100 µM | > 100 µM | > 100 µM | > 100 µM | > 100 µM | > 100 µM | > 100 µM | > 100 µM | > 100 µM | > 100 µM
S=C1CCSc2c(ccc3ccccc23)N1 | > 100 µM | > 100 µM | > 100 µM | > 100 µM | > 100 µM | > 100 µM | > 100 µM | > 100 µM | > 100 µM | > 100 µM | > 100 µM | > 100 µM | > 100 µM | > 100 µM | > 100 µM |  | > 100 µM | > 100 µM
N#CC(Cc1ccccc1)N(CCC1=CCCCC1)Cc1ccccc1 (stereo not given) | > 100 µM | > 100 µM | 91.1 µM | 68 µM | > 100 µM | > 100 µM | > 100 µM | > 100 µM |  | > 100 µM | > 100 µM |  | > 100 µM | > 100 µM | > 100 µM | 63.5 µM | 51.9 µM | > 100 µM
CN(/N=C/c1cccc2cccnc12)c1ccc(Cl)cc1[N+](=O)[O-] | > 100 µM | > 100 µM | > 100 µM | > 100 µM | > 100 µM | > 100 µM | > 100 µM | > 100 µM | > 100 µM | > 100 µM | > 100 µM | > 100 µM | > 100 µM | > 100 µM | > 100 µM | > 100 µM | > 100 µM | > 100 µM
N#Cc1c(N2CCC(O)C2)c2ccccc2n2c1nc1ccccc12 (stereo not given) | > 100 µM |  | > 100 µM | > 100 µM | > 100 µM | > 100 µM | > 100 µM | > 100 µM |  | > 100 µM | > 100 µM | > 100 µM | > 100 µM | > 100 µM | > 100 µM | > 100 µM | > 100 µM | > 100 µM
Cn1c(=O)c2c(nc3n2CCCC(=O)N3CC(O)CCl)n(C)c1=O (stereo not given) | > 100 µM | > 100 µM | > 100 µM | > 100 µM | > 100 µM | > 100 µM | > 100 µM | > 100 µM | > 100 µM | > 100 µM | > 100 µM | > 100 µM | > 100 µM | > 100 µM | > 100 µM | > 100 µM | > 100 µM | > 100 µM
COC1CN(C)C(=Nc2cccc3ccccc23)S1 (stereo not given) | > 10 µM | > 10 µM | > 10 µM | > 10 µM | > 10 µM | > 10 µM |  | > 10 µM |  | > 10 µM | > 10 µM | > 10 µM | > 10 µM | > 10 µM | > 10 µM | > 10 µM | > 10 µM | 
COc1cc(/C=N/n2c(-c3ccccc3)nn(C(C)=O)c2=O)cc(OC)c1OC | > 26.9 µM | > 39.9 µM | 1.96 µM | 8.56 µM | > 81.8 µM | > 58.9 µM | 54.4 µM | > 89.1 µM | > 100 µM | > 82.2 µM | > 59.5 µM | > 100 µM | > 74.2 µM | 31.4 µM | > 49.4 µM | 9.59 µM | 6.68 µM | 
